For assay [1], the system named is mouse mesenteric arteries. In words: Wire myography, mesenteric artery strips precontracted with high K+ (KPSS).
Assay [2] deals with hTRPA1 (Homo sapiens, UniProt O75762). Briefly: TRP channel panel primary screen (FLIPR Calcium 5, stable HEK line). It is filed as cell-based. As to conditions: 0.3-300μM; effects over the micromolar range. How it is done:
(§1) ±PZQ, (R)-PZQ and (S)-PZQ were screened against a panel of 17 human TRP channels (SB Drug Discovery, Glasgow). For all hTRPs, except for TRPM5, individual channel constructs were stably expressed in HEK cell lines. TRMP5 was expressed in a stable CHO cell line. In preparation for the assays, cells were trypsinized, counted and seeded (50,000 cells/well) in black, clear-bottomed 96 well plates and incubated overnight. The following day, cells were loaded with a fluorescent indicator (FLIPR Calcium 5 Assay kit for TRPA1, TRPV1, TRPV2, TRPV3, TRPV4, TRPV5, TRPC1, TRPM2, TRPM3 and TRPM8, or a membrane potential dye (FLIPR Membrane Potential Red Assay Kit for TRPC3, TRPC4, TRPC5, TRPC6, TRPC7, TRPM4 and TRPM5) prepared according to the manufacturer’s instructions in HEPES buffered Hank’s balanced salt solution (HBSS). Dye solution (10μl) was added to appropriate wells and incubated at 37°C for 1 hour. All assays were performed at room temperature. Compounds were tested at 0.3, 1, 3, 10, 30, 100μM and 300μM in triplicate in both agonist and antagonist mode to determine EC50 and IC50 values, which were compared with reference compounds. Compounds were screened at a final DMSO concentration of 0.5%. Plates were screened using a Flexstation (Molecular Devices, FX01138), monitoring fluorescence values every ~1.52 seconds. For ‘agonist mode’ testing, 10μl of the appropriate test compound, or standard agonist, was added after 20 seconds and fluorescence monitored for 2 minutes at λex = 485nm, λem = 525nm for Ca^2+ imaging and λex = 530nm, λem = 565nm for membrane potential measurements. For ‘antagonist mode’ testing, test compounds and standard inhibitors were added to appropriate wells and incubated for 10 minutes at room temperature prior to addition of standard agonist compound.

Assay [3] has as its target hTRPM8 (Homo sapiens, UniProt Q7Z2W7). Described as above. The format is cell-based. To be noted: 0.3-300μM; effects over the micromolar range. The method, then: as §1
Assay [4] addresses T1, hTRPC3 (Homo sapiens, UniProt Q13507).
T1 sequence (Q13507 1-921): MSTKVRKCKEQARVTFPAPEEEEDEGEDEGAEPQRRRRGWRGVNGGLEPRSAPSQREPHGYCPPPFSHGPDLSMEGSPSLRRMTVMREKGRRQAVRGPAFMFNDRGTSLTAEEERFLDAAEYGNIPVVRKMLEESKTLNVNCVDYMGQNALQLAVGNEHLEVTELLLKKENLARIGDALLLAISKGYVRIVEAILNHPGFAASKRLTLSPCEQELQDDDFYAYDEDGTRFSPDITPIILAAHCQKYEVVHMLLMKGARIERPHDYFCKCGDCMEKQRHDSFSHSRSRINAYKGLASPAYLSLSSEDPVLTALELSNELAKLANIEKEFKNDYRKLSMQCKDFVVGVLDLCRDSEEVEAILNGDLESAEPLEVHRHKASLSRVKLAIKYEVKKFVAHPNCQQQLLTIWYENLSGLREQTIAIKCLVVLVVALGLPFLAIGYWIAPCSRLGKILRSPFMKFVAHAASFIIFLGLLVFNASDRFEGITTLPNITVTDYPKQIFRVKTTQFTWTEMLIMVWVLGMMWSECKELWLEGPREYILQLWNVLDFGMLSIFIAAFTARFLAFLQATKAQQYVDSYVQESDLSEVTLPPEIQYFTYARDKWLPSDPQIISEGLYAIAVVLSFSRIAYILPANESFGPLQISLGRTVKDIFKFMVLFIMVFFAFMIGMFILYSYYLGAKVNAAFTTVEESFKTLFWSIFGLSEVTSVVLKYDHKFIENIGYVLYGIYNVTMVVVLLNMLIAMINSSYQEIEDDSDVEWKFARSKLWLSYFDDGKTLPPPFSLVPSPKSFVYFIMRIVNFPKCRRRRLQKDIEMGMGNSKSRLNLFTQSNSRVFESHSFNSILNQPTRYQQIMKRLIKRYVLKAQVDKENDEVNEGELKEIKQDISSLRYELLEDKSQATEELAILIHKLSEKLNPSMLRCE
In words: TRP channel panel primary screen (membrane potential dye, stable HEK line). To be noted: 0.3-300μM; effects over the micromolar range. The format is cell-based. How it is done:
as §1

Assay [5] has as its target T2, hTRPC7 (Homo sapiens, UniProt Q9HCX4).
T2 sequence (Q9HCX4 1-862): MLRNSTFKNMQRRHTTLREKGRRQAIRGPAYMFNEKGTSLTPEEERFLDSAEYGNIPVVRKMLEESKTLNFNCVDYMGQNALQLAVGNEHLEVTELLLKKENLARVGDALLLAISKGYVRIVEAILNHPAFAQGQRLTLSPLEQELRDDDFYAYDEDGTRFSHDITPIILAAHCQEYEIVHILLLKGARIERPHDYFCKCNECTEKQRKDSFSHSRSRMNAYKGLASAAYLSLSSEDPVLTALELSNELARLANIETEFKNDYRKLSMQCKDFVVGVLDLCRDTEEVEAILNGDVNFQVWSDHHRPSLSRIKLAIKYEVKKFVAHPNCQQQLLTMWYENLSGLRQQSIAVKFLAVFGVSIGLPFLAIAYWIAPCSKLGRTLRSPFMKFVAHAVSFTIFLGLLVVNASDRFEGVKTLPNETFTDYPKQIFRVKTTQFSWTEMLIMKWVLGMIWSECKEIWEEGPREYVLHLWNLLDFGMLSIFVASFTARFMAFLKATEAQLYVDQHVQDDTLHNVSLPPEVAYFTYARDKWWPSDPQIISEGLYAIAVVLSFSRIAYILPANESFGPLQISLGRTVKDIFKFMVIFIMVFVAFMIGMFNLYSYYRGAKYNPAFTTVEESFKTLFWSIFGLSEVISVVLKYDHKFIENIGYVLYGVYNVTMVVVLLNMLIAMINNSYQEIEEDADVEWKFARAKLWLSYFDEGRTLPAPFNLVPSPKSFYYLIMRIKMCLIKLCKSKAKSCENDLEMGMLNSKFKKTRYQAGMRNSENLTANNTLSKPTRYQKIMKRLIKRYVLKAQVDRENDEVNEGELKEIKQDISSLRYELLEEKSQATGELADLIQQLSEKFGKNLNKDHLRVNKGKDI
Described as above. The format is cell-based. As to conditions: 0.3-300μM; effects over the micromolar range. How it is done:
as §1

Chain of hTRPM8 (Q7Z2W7 whole entry): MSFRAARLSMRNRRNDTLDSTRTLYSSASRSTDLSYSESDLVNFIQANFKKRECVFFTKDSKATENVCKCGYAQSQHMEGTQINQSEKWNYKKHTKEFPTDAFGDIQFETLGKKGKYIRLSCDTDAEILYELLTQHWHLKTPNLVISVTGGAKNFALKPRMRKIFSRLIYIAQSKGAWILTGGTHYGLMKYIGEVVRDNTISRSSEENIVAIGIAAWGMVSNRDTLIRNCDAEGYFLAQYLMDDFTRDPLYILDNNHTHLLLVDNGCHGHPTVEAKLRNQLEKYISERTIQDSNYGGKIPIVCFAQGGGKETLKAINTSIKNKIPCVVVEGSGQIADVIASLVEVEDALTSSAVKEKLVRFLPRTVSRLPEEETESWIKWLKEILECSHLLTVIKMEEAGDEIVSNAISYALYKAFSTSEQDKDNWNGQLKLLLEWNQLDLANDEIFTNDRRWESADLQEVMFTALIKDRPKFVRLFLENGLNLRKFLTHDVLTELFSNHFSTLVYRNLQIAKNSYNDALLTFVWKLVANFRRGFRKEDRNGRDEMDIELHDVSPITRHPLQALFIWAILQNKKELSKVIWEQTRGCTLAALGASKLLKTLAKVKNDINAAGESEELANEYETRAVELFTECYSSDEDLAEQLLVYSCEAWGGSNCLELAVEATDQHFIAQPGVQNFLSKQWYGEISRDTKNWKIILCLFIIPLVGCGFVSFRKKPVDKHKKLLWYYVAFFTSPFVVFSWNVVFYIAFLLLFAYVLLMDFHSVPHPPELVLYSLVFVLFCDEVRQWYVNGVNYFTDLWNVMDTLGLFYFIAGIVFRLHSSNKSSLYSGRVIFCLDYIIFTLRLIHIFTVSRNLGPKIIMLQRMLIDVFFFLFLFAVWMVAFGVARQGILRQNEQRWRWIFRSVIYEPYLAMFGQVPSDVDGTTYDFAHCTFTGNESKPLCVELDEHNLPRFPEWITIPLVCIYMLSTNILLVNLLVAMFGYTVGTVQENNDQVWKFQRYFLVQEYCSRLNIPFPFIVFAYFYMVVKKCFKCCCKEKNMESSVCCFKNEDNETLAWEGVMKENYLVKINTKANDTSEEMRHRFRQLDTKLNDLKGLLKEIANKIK
Chain of hTRPA1 (O75762 whole entry): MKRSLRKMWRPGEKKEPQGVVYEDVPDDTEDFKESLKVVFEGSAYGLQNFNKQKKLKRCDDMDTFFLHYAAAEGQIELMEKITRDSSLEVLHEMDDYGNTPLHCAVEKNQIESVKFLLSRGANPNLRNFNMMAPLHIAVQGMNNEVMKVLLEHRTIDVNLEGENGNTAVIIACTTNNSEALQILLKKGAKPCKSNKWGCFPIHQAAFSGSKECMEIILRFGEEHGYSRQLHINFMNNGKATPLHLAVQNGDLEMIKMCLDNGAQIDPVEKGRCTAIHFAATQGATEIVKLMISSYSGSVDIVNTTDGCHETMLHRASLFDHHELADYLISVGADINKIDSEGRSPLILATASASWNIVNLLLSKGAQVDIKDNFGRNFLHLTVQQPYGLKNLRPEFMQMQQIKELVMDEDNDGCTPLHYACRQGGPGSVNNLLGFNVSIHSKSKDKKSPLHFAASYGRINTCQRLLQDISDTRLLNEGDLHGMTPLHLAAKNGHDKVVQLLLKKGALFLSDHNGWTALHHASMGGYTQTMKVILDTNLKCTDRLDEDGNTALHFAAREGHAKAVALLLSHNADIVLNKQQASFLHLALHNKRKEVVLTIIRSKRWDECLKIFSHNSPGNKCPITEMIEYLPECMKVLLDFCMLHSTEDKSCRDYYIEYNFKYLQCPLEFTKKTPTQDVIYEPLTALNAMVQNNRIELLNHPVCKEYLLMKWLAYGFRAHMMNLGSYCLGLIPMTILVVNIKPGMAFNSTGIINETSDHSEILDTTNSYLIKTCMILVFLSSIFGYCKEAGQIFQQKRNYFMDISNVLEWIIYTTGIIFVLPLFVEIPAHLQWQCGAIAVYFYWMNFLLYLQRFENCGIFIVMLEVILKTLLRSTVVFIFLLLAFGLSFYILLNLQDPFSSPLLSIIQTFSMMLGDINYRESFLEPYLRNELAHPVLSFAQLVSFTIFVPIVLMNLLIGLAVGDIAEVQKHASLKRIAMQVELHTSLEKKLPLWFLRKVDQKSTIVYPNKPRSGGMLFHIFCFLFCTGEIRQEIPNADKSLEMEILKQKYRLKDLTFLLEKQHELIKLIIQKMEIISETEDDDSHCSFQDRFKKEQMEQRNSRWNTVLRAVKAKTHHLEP

As to `O=C(C1CCCCC1)N1CC(=O)N2CCc3ccccc3C2C1` (racemic) [±PZQ, praziquantel], the “relaxation of the KPSS-contracted vessel” value in assay [1] (100μM, peak relaxation) is given as 61±9%. Besides, the “activity at hTRPA1 in primary screen” value in assay [2] is recorded as “displayed activity”. For the same compound, the “activity at hTRPM8 in primary screen” value in assay [3] was “displayed activity”. In addition, the “activity at hTRPC3 in primary screen” value in assay [4] was “displayed activity”. Besides, in assay [5], the “activity at hTRPC7 in primary screen” value was “displayed activity”.

Regarding `O=C(C1CCCCC1)N1CC(=O)N2CCc3ccccc3[C@H]2C1` [(S)-PZQ], the “change in tension of KPSS-precontracted vessels” value in assay [1] (50μM, bath application during KPSS-evoked contraction) is “decrease in tension”. Besides, the extent of relaxation in assay [1] (WT tissue, 50μM) is ~ 30 % of peak KPSS-evoked tone. Besides, in assay [2], the “activity at hTRPA1 in primary screen” value is listed as “activated”. Moreover, in assay [3], the “activity at hTRPM8 in primary screen” value is “sole active enantiomer”. For the same compound, the “activity at hTRPC3 in primary screen” value in assay [4] is “activated”. For the same compound, the “activity at hTRPC7 in primary screen” value in assay [5] is “activated”.
